{"source": "paper PMC11087268", "about": "“A folate inhibitor exploits metabolic differences in Pseudomonas aeruginosa for narrow-spectrum targeting” (Nature Microbiology, 2024)", "key": {"S. aureus USA300": {"tested_on": "S. aureus USA300", "assay": "Growth with or without TMI supplementation and fluorofolin, S. aureus USA300", "type": "cell-based, Staphylococcus aureus", "conditions": "fluorofolin 2X MIC", "method": "(§1) Where listed, growth media were prepared according manufacturer recommendations: LB broth and LB broth supplemented with 0.3 mM thymine (BD Biosciences 244610, Alfa Aesar A15879), 0.3 mM methionine (Sigma-Aldrich M9625), 0.3 mM inosine (EMD Millipore 4060), cation-adjusted Mueller–Hinton II broth (CAMHB) (BD 212322) or 0.3 mM thymidine (Sigma-Aldrich T1895), Gutnick minimal media (1.0 g l^−1 K2SO4, 13.5 g l^−1 K2HPO4, 4.7 g l^−1 KH2PO4, 0.1 g l^−1 MgSO4·7H2O, 10 mM NH4Cl as a nitrogen source and 0.4% w/v glucose as a carbon source)[65].\n(§2) Extended Data Fig. 3 TMI supplementation can also rescue other species from fluorofolin DHFR inhibition. […] (f) P. aeruginosa PA14 or E. coli lptd4213 treated with fluorofolin 50 μg/mL in the presence or absence of 0.3 mM thymidine. (g) E. coli lptd4213 treated with fluorofolin 50 μg/mL and SMX (78.1 μg/mL) in the presence or absence of 0.3 mM thymidine or 0.3 mM TMI supplementation, Curves represent average optical at 600 nm (OD600) of 2 biological replicates. Means are shown. Source data"}, "[1]": {"tested_on": "HK-2 (human kidney epithelial)", "assay": "Mammalian cell cytotoxicity, HK-2", "type": "cell-based", "conditions": "72 h, CyQUANT, read-out: IC50 Fluorofolin", "method": "(§3) HK-2 (500 cells per well) (ATCC CRL-2190), HLF (500 cells per well) (Cell Applications 506K-05a), WI-38 (500 cells per well) (ATCC CCL-75) or PBMC (5,000 cells per well) (TPCS PB010C) cells were seeded in white opaque 384-well plates. After 24 h, DMSO or compounds were added in 3-fold dilutions and cells incubated for 72 h. For PBMC, CellTiter-Glo reagent was added in equal volume and incubated for 30 min, after which luminescence was read. For other cell types, CyQUANT detection reagent was added in equal volume and cells incubated for 1 h, after which fluorescence was read with standard green filter set […]. Cell toxicity was evaluated by Pharmaron."}, "[2]": {"tested_on": "Salmonella typhimurium CMCC 50115", "assay": "MIC (WuXi, Mueller–Hinton broth) against S. typhimurium", "type": "cell-based", "conditions": "Salmonella enterica, performed by WuXi", "method": "(§4) Bacterial colonies (4–8) of strains of interest were vortexed in saline and adjusted to an OD600 of 0.2. Strains were diluted 1:200 into CAMHB media in 96-well plates. Antibiotics were serially diluted 1:3 in DMSO, and 1 μl of each dilution was added to bacteria. The plates were incubated for 18–20 h at 37 °C before observation."}, "ESKAPE pathogens": {"tested_on": "ESKAPE pathogens", "assay": "Growth inhibition of P. aeruginosa PA01, ATTC 27853 and ESKAPE pathogens (MIC panel)", "type": "cell-based", "conditions": "P. aeruginosa PA01 and ATTC 27853 and all 5 ESKAPE pathogens tested", "method": "(§5) Overnight cultures were diluted 1:150 in LB broth and added to a 96-well plate. Antibiotics were serially diluted 1:2 and added to columns of the 96-well plate and grown at 37 °C with continuous shaking. Cell growth was measured using optical density at 600 nm (OD600). MIC assays were performed in either BioTek Synergy HT or Tecan InfiniteM200 Pro microplate readers.\nas §4"}, "Escherichia coli MG1655": {"tested_on": "Escherichia coli MG1655", "assay": "MIC against E. coli MG1655 in LB broth", "type": "cell-based", "conditions": "16 h, 37 °C, OD600", "method": "as §5"}, "E. cloacae": {"tested_on": "E. cloacae", "assay": "Growth with or without TMI supplementation and fluorofolin, E. cloacae", "type": "cell-based, Enterobacter cloacae", "conditions": "fluorofolin 2X MIC", "method": "as §1, §2"}, "[3]": {"assay": "Pharmacokinetic analysis after single oral dose", "type": "in vivo, mouse", "method": "For pharmacokinetics determination, care and handling of male CD-1 mice approximately 6–8 weeks old conformed to institutional animal care and use policies as carried out at Pharmaron.\nPharmacokinetic properties were determined after a single dose of 200 mg kg^−1 fluorofolin given orally (PO). Plasma samples were taken from three mice at times 0.083, 0.25, 0.5, 1, 2, 4, 8 and 24 h, and quantitative analysis was performed using LC–MS/MS. Half-life was determined from plasma concentration after fluorofolin levels reached pseudo-equilibrium (4 h for mouse 1 and 2, and 2 h for mouse 3). Pharmacokinetic values were estimated using a non-compartmental model generated from WinNonlin 6.1. Pharmacokinetic analysis was carried out by Pharmaron."}, "Maximum tolerated dose": {"assay": "Maximum tolerated dose", "conditions": "female, mouse, in vivo, sc; CD-1 mice, subcutaneous", "from_the_text": "For P. aeruginosa thigh infection model and maximum tolerated dose (MTD) studies, care and handling of female 5–6-week-old CD-1 conformed to Institutional Animal Care and Use Committee (IACUC) policies as carried out at the University of North Texas Health Science Center (Fort Worth, Texas) under UNTHSC IACUC-approved protocol nos. IACUC-2021-0003 and IACUC-2020-0039. Rodents were fed either base chow (Envigo) or base diet supplemented with 1.8 g kg^−1 thymidine (Sigma T9250) starting at 2 days before infection. All procedures were conducted in accordance with the UNTHSC IACUC-approved protocol. Animals were housed in rooms undergoing 10–15 air changes per hour. Air provided to the animal rooms was controlled for temperature and humidity and is fully monitored 24 h a day. Air pressure was balanced according to room use. Lighting was controlled in individual rooms by automatic timers with a standard 12 h on, 12 h off cycle.\nMTD was determined by administration of compounds at increasing dosage until the maximum dose before adverse reactions were observed. Doses were increased in a stepwise manner from 1 mg kg^−1 to 5, 10, 25 and 50 mg kg^−1. […] The maximum tolerated dose of fluorofolin was determined to be 25 mg kg^−1 administered subcutaneously. MTD was evaluated by the UNTHSC."}, "[4]": {"tested_on": "HLF (human lung fibroblast)", "assay": "Mammalian cell cytotoxicity, HLF", "type": "cell-based", "conditions": "72 h, CyQUANT, read-out: IC50 Fluorofolin", "method": "as §3"}, "[5]": {"conditions": "CD-1 mice, 200 mg/kg PO, mean of three mice"}, "[6]": {"conditions": "male, mouse, plasma, CD-1 mice, 200 mg/kg PO, mean of three mice"}}, "note": "Several values for one entry are separate records, joined by “and”; a condition that tells them apart may be missing. Equal values may be shown once.", "data": [{"smiles": "Nc1nc(N)c2c(ccc3c2ccn3Cc2ccnc(F)c2)n1", "note": "[fluorofolin]", "values": [{"measurement": "rescue of growth inhibition by TMI supplementation", "setting": "S. aureus USA300", "value": "could also be rescued from fluorofolin growth inhibition by TMI supplementation"}, {"measurement": "IC50", "setting": "[1]", "value": 51.7, "unit": "mg/L"}, {"measurement": "MIC", "setting": "[2]", "value": 0.03, "unit": "mg/L"}, {"measurement": "concentration inhibiting growth", "setting": "ESKAPE pathogens", "value": "less than 50 µg ml^−1"}, {"measurement": "MIC", "setting": "Escherichia coli MG1655", "value": 0.625, "unit": "mg/L"}, {"measurement": "rescue of growth inhibition by TMI supplementation", "setting": "E. cloacae", "value": "could also be rescued from fluorofolin growth inhibition by TMI supplementation"}, {"measurement": "plasma concentration", "setting": "[3]; 0.083 h after 200 mg kg^−1 PO, one value per mouse", "value": "1.29 µg/mL and 1.47 µg/mL"}, {"measurement": "plasma concentration", "setting": "[3]; 0.25 h after 200 mg kg^−1 PO, one value per mouse", "value": "2.88 µg/mL and 2.5 µg/mL"}, {"measurement": "plasma concentration", "setting": "[3]; 0.5 h after 200 mg kg^−1 PO, one value per mouse", "value": "3.07 µg/mL and 2.97 µg/mL"}, {"measurement": "plasma concentration", "setting": "[3]; 1 h after 200 mg kg^−1 PO, one value per mouse", "value": "3.98 µg/mL and 3.26 µg/mL"}, {"measurement": "plasma concentration", "setting": "[3]; 2 h after 200 mg kg^−1 PO, one value per mouse", "value": "4.08 µg/mL and 3.76 µg/mL"}, {"measurement": "plasma concentration", "setting": "[3]; 4 h after 200 mg kg^−1 PO, one value per mouse", "value": "4.46 µg/mL and 3.06 µg/mL"}, {"measurement": "plasma concentration", "setting": "[3]; 8 h after 200 mg kg^−1 PO, one value per mouse", "value": "2.58 µg/mL and 1.4 µg/mL"}, {"measurement": "plasma concentration", "setting": "[3]; 24 h after 200 mg kg^−1 PO, one value per mouse", "value": "0.43 µg/mL and 0.287 µg/mL and 1.74 µg/mL"}, {"measurement": "AUC_% Extrap_obs", "setting": "[3]; [5]", "value": 23.3970, "unit": "%"}, {"measurement": "AUC_last/D", "setting": "[3]; [5]", "value": 231.6700, "unit": "h*ng/mL per mg/kg"}, {"measurement": "T1/2", "setting": "[3]; CD-1 mice, 200 mg/kg PO, mean of three mice, 200 mg/kg", "value": 12.1050, "unit": "h"}, {"measurement": "concentration at 0.083 h", "setting": "[3]; male, CD-1, mouse, plasma, po, 200 mg kg^−1, 0.083 h after 200 mg kg^−1 PO, one value per mouse", "value": 0.88, "unit": "µg/mL"}, {"measurement": "concentration at 0.25 h", "setting": "[3]; male, CD-1, mouse, plasma, po, 200 mg kg^−1, 0.25 h after 200 mg kg^−1 PO, one value per mouse", "value": 2.22, "unit": "µg/mL"}, {"measurement": "concentration at 0.5 h", "setting": "[3]; male, CD-1, mouse, plasma, po, 200 mg kg^−1, 0.5 h after 200 mg kg^−1 PO, one value per mouse", "value": 2.81, "unit": "µg/mL"}, {"measurement": "concentration at 1 h", "setting": "[3]; male, CD-1, mouse, plasma, po, 200 mg kg^−1, 1 h after 200 mg kg^−1 PO, one value per mouse", "value": 2.93, "unit": "µg/mL"}, {"measurement": "concentration at 2 h", "setting": "[3]; male, CD-1, mouse, plasma, po, 200 mg kg^−1, 2 h after 200 mg kg^−1 PO, one value per mouse", "value": 3.64, "unit": "µg/mL"}, {"measurement": "concentration at 4 h", "setting": "[3]; male, CD-1, mouse, plasma, po, 200 mg kg^−1, 4 h after 200 mg kg^−1 PO, one value per mouse", "value": 3.46, "unit": "µg/mL"}, {"measurement": "concentration at 8 h", "setting": "[3]; male, CD-1, mouse, plasma, po, 200 mg kg^−1, 8 h after 200 mg kg^−1 PO, one value per mouse", "value": 1.64, "unit": "µg/mL"}, {"measurement": "half-life", "setting": "[3]; male, CD-1, mouse, plasma, po, 200 mg/kg, CD-1 mice, 200 mg/kg PO, mean of three mice", "value": 12.1, "unit": "h"}, {"measurement": "AUC(0-inf)", "setting": "[3]; [6]", "value": 68.8, "unit": "µg·h/mL"}, {"measurement": "AUC(0-t)", "setting": "[3]; [6]", "value": 46.3, "unit": "µg·h/mL"}, {"measurement": "Cmax", "setting": "[3]; [6]", "value": 3.95, "unit": "µg/mL"}, {"measurement": "Tmax", "setting": "[3]; [6]", "value": 2.67, "unit": "h"}, {"measurement": "MRT inf", "setting": "[3]; male, mouse, plasma, CD-1 mice, 200 mg/kg PO, mean of three mice, read-out: MRT_Inf_obs", "value": 18.2, "unit": "h"}, {"measurement": "peak concentration", "setting": "[3]; mice, oral administration", "value": 4.0, "unit": "µg/mL"}, {"measurement": "MTD", "setting": "Maximum tolerated dose", "value": 25, "unit": "mg/kg"}, {"measurement": "IC50", "setting": "[4]", "value": 17.2, "unit": "mg/L"}]}]}
